# In patent publication US9920017B2, “Heterocyclic compounds as pesticides” (BAYER CROPSCIENCE AKTIENGESELLSCHAFT, priority 2014, dated 2018):
# Assay: Determination of log P values by HPLC (reversed-phase C18)
# Format: physicochemical
# Conditions: HPLC, reversed-phase C18, 55° C.; final compounds table
# Method: 1) Description of Method for Determination of the Log P Values ([…]) The log P values given in the table were determined in accordance with EEC Directive 79/831 Annex V.A8 by HPLC (High Performance Liquid Chromatography) using a reversed-phase column (C 18). Temperature: 55° C. […] Gradient: from 10% eluent A/90% eluent B to 95% eluent A/5% eluent B in 4.25 min. Calibration was effected with unbranched alkan-2-ones (having 3 to 16 carbon atoms) with known log P values (log P values determined on the basis of the retention times by linear interpolation between two successive alkanones). The lambda max values were determined in the maxima of the chromatographic signals using the UV spectra from 200 nm to 400 nm.
row,Compound,log P neutral
1,O=C(Nc1ncn(-c2ccccc2F)n1)c1ccccc1C(F)(F)F [Compound I-1-2],2.06
2,COc1ccccc1C(=O)Nc1ncn(-c2c(F)cccc2F)n1 [Compound I-1-16],1.91
3,O=C(Nc1ncn(-c2c(F)cccc2F)n1)c1ccccc1OC(F)(F)F [Compound I-1-17],2.14
4,O=C(Nc1ncn(-c2c(F)cccc2F)n1)c1cccnc1Cl [Compound I-1-23],1.24
5,O=C(Nc1ncn(-c2c(F)cccc2Cl)n1)c1ccccc1OC(F)(F)F [Compound I-1-34],2.30
6,Cc1cccc(F)c1-n1cnc(NC(=O)c2ccccc2C(F)(F)F)n1 [Compound I-1-37],2.19
7,Cc1cccc(F)c1-n1cnc(NC(=O)c2ccccc2I)n1 [Compound I-1-39],2.13
8,Cc1cccc(C)c1-n1cnc(NC(=O)c2ccccc2C(F)(F)F)n1 [Compound I-1-48],2.26
9,COc1cccc(C)c1-n1cnc(NC(=O)c2ccccc2C(F)(F)F)n1 [Compound I-1-49],2.15
10,O=C(Nc1ncn(-c2ccc(Cl)cc2Cl)n1)c1ccccc1C(F)(F)F [Compound I-1-53],2.58
11,O=C(Nc1ncn(-c2cc(Cl)ccc2Cl)n1)c1ccccc1C(F)(F)F [Compound I-1-54],2.55
12,O=C(Nc1ncn(-c2c(F)c(F)c(F)c(F)c2F)n1)c1ccccc1Cl [Compound I-1-66],2.28
13,CCc1ccccc1C(=O)Nc1ncn(-c2c(F)c(F)c(F)c(F)c2F)n1 [Compound I-1-68],2.61
14,CCc1ccccc1C(=O)Nc1ncn(-c2ccccc2Br)n1 [Compound I-1-73],2.34
15,CCc1ccccc1C(=O)Nc1ncn(-c2ccccc2I)n1 [Compound I-1-78],2.31
16,CCc1ccccc1C(=O)Nc1ncn(-c2c(Br)cccc2Br)n1 [Compound I-1-81],2.45
17,O=C(Nc1ncn(-c2c(Br)cc(F)cc2Br)n1)c1ccccc1Cl [Compound I-1-88],2.26
18,O=C(Nc1ncn(-c2c(F)cccc2F)n1)c1ccsc1I [Compound I-1-94],1.92
19,CCc1ccccc1C(=O)Nc1ncn(-c2ccccc2C(F)(F)F)n1 [Compound I-1-95],2.33
20,Cc1cc(C)c(S(=O)(=O)CC(F)(F)F)cc1-n1cnc(NC(=O)c2ccccc2C(F)(F)F)n1 [Compound I-1-96],2.49
21,Cc1cc(C)c(-n2cnc(NC(=O)c3ccccc3C(F)(F)F)n2)cc1SCC(F)(F)F [Compound I-1-98],3.21

# The remaining lines, values ahead:
row,log P neutral,Compound
1,1.88,O=C(Nc1ncn(-c2ccccc2F)n1)c1ccccc1Cl [Compound I-1-1]
2,2.10,O=C(Nc1ncn(-c2ccccc2Cl)n1)c1ccccc1C(F)(F)F [Compound I-1-3]
3,1.91,O=C(Nc1ncn(-c2ccccc2Cl)n1)c1ccccc1Cl [Compound I-1-5]
4,1.90,O=C(Nc1ncn(-c2ccccc2Cl)n1)c1c(F)cccc1F [Compound I-1-6]
5,2.06,O=C(Nc1ncn(-c2ccccc2C(F)(F)F)n1)c1ccccc1Cl [Compound I-1-7]
6,2.32,O=C(Nc1ncn(-c2ccccc2OC(F)(F)F)n1)c1ccccc1Cl [Compound I-1-9]
7,1.83,O=C(Nc1ncn(-c2c(F)cccc2Cl)n1)c1ccccc1Cl [Compound I-1-36]
8,1.99,Cc1cccc(F)c1-n1cnc(NC(=O)c2ccccc2Cl)n1 [Compound I-1-38]
9,2.04,Cc1cccc(Cl)c1-n1cnc(NC(=O)c2ccccc2Cl)n1 [Compound I-1-41]
10,2.36,CCc1cccc(Cl)c1-n1cnc(NC(=O)c2ccccc2Cl)n1 [Compound I-1-43]
11,2.04,Cc1cccc(C)c1-n1cnc(NC(=O)c2ccccc2Cl)n1 [Compound I-1-47]
12,1.95,COc1cccc(C)c1-n1cnc(NC(=O)c2ccccc2Cl)n1 [Compound I-1-50]
13,2.49,O=C(Nc1ncn(-c2cccc(Cl)c2Cl)n1)c1ccccc1C(F)(F)F [Compound I-1-51]
14,2.29,O=C(Nc1ncn(-c2cccc(Cl)c2Cl)n1)c1ccccc1Cl [Compound I-1-52]
15,2.34,O=C(Nc1ncn(-c2cc(Cl)ccc2Cl)n1)c1ccccc1Cl [Compound I-1-55]
16,1.96,O=C(Nc1ncn(-c2ccccc2Br)n1)c1ccccc1Cl [Compound I-1-71]
17,2.01,O=C(Nc1ncn(-c2ccccc2I)n1)c1ccccc1Cl [Compound I-1-76]
18,2.15,O=C(Nc1ncn(-c2ccccc2I)n1)c1ccccc1I [Compound I-1-77]
19,2.02,O=C(Nc1ncn(-c2c(F)cccc2I)n1)c1ccccc1Cl [Compound I-1-84]

# Same assay, conditions: N-[1-aryl-1H-1,2,4-triazol-3-yl]benzamides, formula (1-9)
row,Compound,logP (neutral)
1,O=C(Nc1ncn(-c2c(Br)cc(F)cc2Br)n1)c1ccccc1 [1-9 R1=Br R2m=6-Br-4-F],2.14
2,O=C(Nc1ncn(-c2c(Br)cccc2Br)n1)c1ccccc1 [1-9 R1=Br R2m=6-Br],2.00
3,O=C(Nc1ncn(-c2ccccc2Br)n1)c1ccccc1 [1-9 R1=Br R2m=—],1.80
4,O=C(Nc1ncn(-c2ccccc2C(F)(F)F)n1)c1ccccc1 [1-9 R1=CF3 R2m=—],1.91
5,COc1cccc(C)c1-n1cnc(NC(=O)c2ccccc2)n1 [1-9 R1=CH3 R2m=6-OCH3],1.76
6,CCc1cccc(Cl)c1-n1cnc(NC(=O)c2ccccc2)n1 [1-9 R1=Cl R2m=6-C2H5],2.2
7,Cc1cccc(Cl)c1-n1cnc(NC(=O)c2ccccc2)n1 [1-9 R1=Cl R2m=6-CH3],1.92
8,O=C(Nc1ncn(-c2c(F)cccc2Cl)n1)c1ccccc1 [1-9 R1=Cl R2m=6-F],1.75
9,"O=C(Nc1ncn(-c2c(F)c(F)c(F)c(F)c2F)n1)c1ccccc1 [1-9 R1=F R2m=3,4,5,6-F4]",2.11
10,"O=C(Nc1ncn(-c2c(F)ccc(F)c2F)n1)c1ccccc1 [1-9 R1=F R2m=3,6-F2]",1.73
11,"O=C(Nc1ncn(-c2c(F)cc(F)cc2F)n1)c1ccccc1 [1-9 R1=F R2m=4,6-F2]",1.71
12,Cc1cccc(F)c1-n1cnc(NC(=O)c2ccccc2)n1 [1-9 R1=F R2m=6-CH3],1.89
13,O=C(Nc1ncn(-c2c(F)cccc2I)n1)c1ccccc1 [1-9 R1=F R2m=6-I],1.79
14,O=C(Nc1ncn(-c2ccccc2F)n1)c1ccccc1 [1-9 R1=F R2m=—],1.69
15,O=C(Nc1ncn(-c2ccccc2I)n1)c1ccccc1 [1-9 R1=I R2m=—],1.87
16,O=C(Nc1ncn(-c2ccccc2OC(F)(F)F)n1)c1ccccc1 [1-9 R1=OCF3 R2m=—],2.15

# More lines, now with the values ahead:
row,logP (neutral),Compound
1,2.11,O=C(Nc1ncn(-c2cccc(Cl)c2Cl)n1)c1ccccc1 [1-9 R1=Cl R2m=3-Cl]
2,2.18,O=C(Nc1ncn(-c2ccc(Cl)cc2Cl)n1)c1ccccc1 [1-9 R1=Cl R2m=4-Cl]
3,2.17,O=C(Nc1ncn(-c2cc(Cl)ccc2Cl)n1)c1ccccc1 [1-9 R1=Cl R2m=5-Cl]
4,1.8,O=C(Nc1ncn(-c2c(Cl)cccc2Cl)n1)c1ccccc1 [1-9 R1=Cl R2m=6-Cl]
5,1.75,O=C(Nc1ncn(-c2ccccc2Cl)n1)c1ccccc1 [1-9 R1=Cl R2m=—]

# Same assay, conditions: compounds of formula (IIa-1), R3 hydrogen
row,logP (neutral),Compound
1,1.35,Nc1ncn(-c2c(Br)cc(F)cc2Br)n1 [IIa-1 R1=Br R2m=6-Br-4-F]
2,1.2,Nc1ncn(-c2c(Br)cccc2Br)n1 [IIa-1 R1=Br R2m=6-Br]
3,1.03,Nc1ncn(-c2ccccc2Br)n1 [IIa-1 R1=Br R2m=—]
4,1.16,Nc1ncn(-c2ccccc2C(F)(F)F)n1 [IIa-1 R1=CF3 R2m=—]
5,0.98,COc1cccc(C)c1-n1cnc(N)n1 [IIa-1 R1=CH3 R2m=6-OCH3]
6,1.41,Nc1ncn(-c2cccc(Cl)c2Cl)n1 [IIa-1 R1=Cl R2m=3-Cl]
7,1.48,Nc1ncn(-c2ccc(Cl)cc2Cl)n1 [IIa-1 R1=Cl R2m=4-Cl]

# Same assay, conditions: reversed-phase C18 HPLC column, pH 3.4; HPLC-MS, preparation examples; read-out: log P
row,chromatographic logP,Compound
1,0.3,"Nc1ncn(-c2ncc(F)cc2F)n1 [1-(3,5-Difluoropyridin-2-yl)-1H-1,2,4-triazol-3-amine]"
2,2.19,"COc1ccccc1-n1nnc(NC(=O)c2ccccc2C(F)(F)F)n1 [Compound I-2-1, N-[2-(2-Methoxyphenyl)-2H-tetrazol-5-yl]-2-(trifluoromethyl)benzamide]"
3,2.35,"COc1cc(F)ccc1-n1nnc(NC(=O)c2ccccc2C(F)(F)F)n1 [Compound I-2-2, N-[2-(4-Fluoro-2-methoxyphenyl)-2H-tetrazol-5-yl]-2-(trifluoromethyl)benzamide]"

# Same assay, conditions: reversed-phase C18 HPLC column; HPLC, reversed-phase C18, 55° C.; final compounds table; read-out: log P neutral
row,chromatographic logP,Compound
1,2.19,"COc1ccccc1-n1nnc(NC(=O)c2ccccc2C(F)(F)F)n1 [Compound I-2-1, N-[2-(2-Methoxyphenyl)-2H-tetrazol-5-yl]-2-(trifluoromethyl)benzamide]"
2,2.35,"COc1cc(F)ccc1-n1nnc(NC(=O)c2ccccc2C(F)(F)F)n1 [Compound I-2-2, N-[2-(4-Fluoro-2-methoxyphenyl)-2H-tetrazol-5-yl]-2-(trifluoromethyl)benzamide]"

# Same assay, conditions: reversed-phase C18 HPLC column; HPLC-MS, preparation examples; read-out: log P (neutral)
row,chromatographic logP,Compound
1,0.61,"Nc1ncn(-c2c(F)cccc2F)n1 [1-(2,6-Difluorophenyl)-1H-1,2,4-triazol-3-amine]"
2,0.92,"Nc1ncn(-c2c(F)cccc2Br)n1 [1-(2-Bromo-6-fluorophenyl)-1H-1,2,4-triazol-3-amine]"
3,1.09,"Nc1ncn(-c2c(F)cccc2C(F)(F)F)n1 [1-[2-Fluoro-6-(trifluoromethyl)phenyl]-1H-1,2,4-triazol-3-amine]"
4,1.28,"Nc1noc(-c2ccccc2)n1 [5-Phenyl-1,2,4-oxadiazol-3-amine]"
5,2.87,"CCO/C=N/c1noc(-c2ccccc2)n1 [Ethyl [5-phenyl-1,2,4-oxadiazol-3-yl]imidoformate]"
